Measured values reported in US6635641B2 (Agouron Pharmaceuticals, Inc., priority 2000, dated 2003).

What was measured:
[1] = molecular target: T1, phosphorylated VEGF-R2Δ50 (Homo sapiens, UniProt P35968, DEL940-989/E990V); experiment: VEGF-R2 ELISA assay (phosphogastrin formation); type: biochemical; conditions: @ 10 μM (ELISA); read-out: FLVK-P percent inhibition (ELISA)
T1 construct: VEGF-R2Δ50 contains residues 806-939 and 990-1171; made in house; host or cells: baculovirus/insect cells
Excerpt: A construct (VEGF-R2Δ50) of the cytosolic domain of human vascular endothelial growth factor receptor 2 (VEGF-R2) lacking the 50 central residues of the 68 residues of the kinase insert domain was expressed in a baculovirus/insect cell system. Of the 1356 residues of full-length VEGF-R2, VEGF-R2Δ50 contains residues 806-939 and 990-1171, and also one point mutation (E990V) within the kinase insert domain relative to wild-type VEGF-R2. See commonly assigned, co-pending U.S. patent application Ser. No. 09/390,326, filed Sep. 7, 1999, incorporated by reference herein, for discussion of VEGF constructs and expression systems. Autophosphorylation of the purified construct was performed by incubation of the enzyme at a concentration of 4 μM in the presence of 3 mM ATP and 40 mM MgCl2 in 100 mM Hepes, pH 7.5, containing 5% glycerol and 5 mM DTT, at 4° C. for 2 h. […]
Formation of phosphogastrin was monitored using biotinylated gastrin peptide (1-17) as substrate. […] The activity of horseradish peroxidase was monitored using 2,2′-azino-di-[3-ethylbenzathiazoline sulfonate(6)] diammonium salt (ABTS). […] The horseradish peroxidase reaction was quenched by addition of acid (H2SO4), followed by absorbance reading at 405 nm. Ki values were determined by measuring enzyme activity in the presence of varying concentrations of test compounds. The data were analyzed using Enzyme Kinetic and Kaleidagraph software.

[2] = molecular target: T2, phosphorylated VEGF-R2Δ50 (FLVK-P) (Homo sapiens, UniProt P35968, DEL940-989/E990V); experiment: VEGF-R2 coupled spectrophotometric assay, phosphorylated construct (FLVK-P); type: biochemical
T2 construct: VEGF-R2Δ50 contains residues 806-939 and 990-1171; made in house; host or cells: baculovirus/insect cells
How it was run: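 Baculovirus-expressed VEGF-R2Δ50 (residues 806-939/990-1171, E990V), optionally autophosphorylated; ADP formation coupled via PK/LDH to NADH oxidation at 340 nm, pH 7.5 Hepes. FLVK-P: 1 mM ATP, 5.1 mM poly(E4Y1), 25 mM MgCl2; FLVK: 3 mM ATP, 20 mM poly(E4Y1), 60 mM MgCl2, 2 mM MnCl2. Ki from activity over compound concentrations.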

[3] = test system: human umbilical vein endothelial cells (HUVEC); experiment: HUVEC proliferation assay (VEGF-stimulated, MTT); type: cell-based; conditions: Homo sapiens, HUVEC; read-out: HUVEC IC50
How it was run: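 Exponentially growing HUVEC (passage 3-4) were serum-starved 24 h in F12K + 1% FBS, given test compound (final DMSO 0.1%), then stimulated 1 h later with VEGF at 6 ng/ml final. Proliferation read after 72 h by 4 h MTT dye reduction, absorbance at 595.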

[4] = test system: lung cancer cells (line MV522); experiment: Cancer cell proliferation (MV522) assay (MTT); type: cell-based; conditions: MV522
How it was run: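 Proliferation was read by MTT reduction 72 h after compound addition, in a 4-day protocol with no starvation step. Two thousand MV522 cells were seeded in RPMI1640 with 10% FBS and 2 mM glutamine and given 1 day to attach before dosing.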

CDK4/Cyclin D3 complex = molecular target: T3, CDK4/Cyclin D3 complex (Homo sapiens, UniProt P11802); experiment: CDK4/Cyclin D assay ([32P]ATP incorporation into Rb fragment); type: biochemical; conditions: μM
T3 construct: made in house; host or cells: insect cells co-infected with baculovirus vectors
Method: A complex of human CDK4 and cyclin D3, or a complex of cyclin D1 and a fusion protein of human CDK4 and glutathione-S-transferase (GST-CDK4), was purified using traditional biochemical chromatographic techniques from insect cells that had been co-infected with the corresponding baculovirus expression vectors.
(§1) Cyclin-dependent kinase activity was measured by quantifying the enzyme-catalyzed, time-dependent incorporation of radioactive phosphate from [^32P]ATP into a recombinant fragment of the retinoblastoma protein. Unless noted otherwise, assays were performed in 96-well plates in a total volume of 50 μL, in the presence of 10 mM HEPES (N-[2-hydroxyethyl]piperazine-N′-[2-ethanesulfonic acid]) (pH 7.4), 10 mM MgCl2, 25 μM adenosine triphosphate (ATP), 1 mg/mL ovalbumin, 5 μg/mL leupeptin, 1 mM dithiothreitol, 10 mM β-glycerophosphate, 0.1 mM sodium vanadate, 1 mM sodium fluoride, 2.5 mM ethylene glycol-bis(β-aminoethyl ether)-N,N,N′N′-tetraacetic acid (EGTA), 2% (v/v) dimethylsulfoxide, and 0.03-0.2 μCi [^32P]ATP. The substrate (0.3-0.5 μg) was purified recombinant retinoblastoma protein fragment (Rb) (residues 386-928 of the native retinoblastoma protein; 62.3 kDa, containing the majority of the phosphorylation sites found in the native 106-kDa protein, as well as a tag of six histidine residues for ease of purification). Reactions were initiated with CDK2 (150 nM CDK2/Cyclin A complex) or CDK4 (50 nM CDK4/Cyclin D3 complex), incubated at 30° C., and terminated after 20 minutes by the addition of ethylenediaminetetraacetic acid (EDTA) to 250 mM. The phosphorylated substrate was then captured on a nitrocellulose membrane using a 96-well filtration manifold, and unincorporated radioactivity was removed by repeated washing with 0.85% phosphoric acid. Radioactivity was quantified by exposing the dried nitrocellulose membranes to a phosphorimager. Apparent Ki values were measured by assaying enzyme activity in the presence of different compound concentrations and subtracting the background radioactivity measured in the absence of enzyme. The kinetic parameters (kcat, Km for ATP) were measured for each enzyme under the usual assay conditions by determining the dependence of initial rates on ATP concentration. The data were fit to an equation for competitive inhibition using Kaleidagraph (Synergy Software), or were fit to an equation for competitive tight-binding inhibition using the software KineTic (BioKin, Ltd.). Measured Ki values for known inhibitors against CDK4 and CDK2 agreed with published IC50 values. The specific activity of CDK4 was the same whether complexed to full-length cyclin D3 or the truncated Cyclin D3 construct; both complexes also yielded very similar Ki values for selected inhibitors.

[5] = molecular target: T4, unphosphorylated VEGF-R2Δ50 (FLVK) (Homo sapiens, UniProt P35968, DEL940-989/E990V); experiment: VEGF-R2 coupled spectrophotometric assay, unphosphorylated construct (FLVK); type: biochemical;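 further: Baculovirus-expressed cytosolic kinase domain, ADP formation linked via pyruvate kinase and lactate dehydrogenase to NADH oxidation, read as falling absorbance at 340 nm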
T4 construct: VEGF-R2Δ50 contains residues 806-939 and 990-1171; made in house; host or cells: baculovirus/insect cells

CDK2/Cyclin A complex = CDK2/Cyclin A complex (Homo sapiens, UniProt P24941); experiment: CDK2/Cyclin A assay ([32P]ATP incorporation into Rb fragment); type: biochemical; conditions: μM
Method: CDK2 was purified using published methodology (Rosenblatt et al., J. Mol. Biol., 230, 1317-1319 (1993)) from insect cells that had been infected with a baculovirus expression vector. Cyclin A was purified from E. coli cells expressing full-length recombinant cyclin A, and a truncated cyclin A construct was generated by limited proteolysis and purified as described previously (Jeffrey et al., Nature, 376, 313-320 (1995)).
as §1, with “The specific activity of CDK4 was the same whether complexed to full-length cyclin D3 or the truncated Cyclin D3 construct; both complexes also yielded very similar Ki values for selected inhibitors.” left out

T3 sequence (P11802 whole entry, the tested form may be a part): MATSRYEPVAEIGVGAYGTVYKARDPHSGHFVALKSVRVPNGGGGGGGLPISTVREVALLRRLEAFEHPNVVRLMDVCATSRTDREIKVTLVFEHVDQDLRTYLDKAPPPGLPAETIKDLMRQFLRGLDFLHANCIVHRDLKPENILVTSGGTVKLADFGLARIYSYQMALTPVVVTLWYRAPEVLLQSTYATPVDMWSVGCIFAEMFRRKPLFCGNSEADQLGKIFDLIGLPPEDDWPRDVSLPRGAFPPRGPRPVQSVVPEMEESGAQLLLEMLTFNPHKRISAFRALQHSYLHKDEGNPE
T3 sequence (P30281 whole entry partner, the tested form may be a part): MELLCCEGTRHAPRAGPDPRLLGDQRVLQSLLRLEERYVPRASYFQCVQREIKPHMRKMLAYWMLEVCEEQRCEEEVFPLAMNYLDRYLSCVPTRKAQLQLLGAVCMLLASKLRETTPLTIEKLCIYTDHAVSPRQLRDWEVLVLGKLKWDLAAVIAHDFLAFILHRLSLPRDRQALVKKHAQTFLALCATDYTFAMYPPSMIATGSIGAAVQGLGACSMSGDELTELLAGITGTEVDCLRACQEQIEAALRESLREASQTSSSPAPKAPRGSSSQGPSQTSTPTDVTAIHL
T2 sequence (P35968 with tags, fused parts or gaps DEL940-989/E990V limits assumed): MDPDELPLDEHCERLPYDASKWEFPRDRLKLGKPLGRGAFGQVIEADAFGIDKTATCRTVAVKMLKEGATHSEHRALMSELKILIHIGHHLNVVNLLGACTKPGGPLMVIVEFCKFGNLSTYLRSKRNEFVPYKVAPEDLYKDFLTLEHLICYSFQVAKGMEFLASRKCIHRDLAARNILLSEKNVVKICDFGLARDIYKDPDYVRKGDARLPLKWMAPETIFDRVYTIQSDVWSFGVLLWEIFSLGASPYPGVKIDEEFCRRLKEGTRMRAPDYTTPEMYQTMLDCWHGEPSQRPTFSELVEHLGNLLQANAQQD
T1 sequence (P35968 with tags, fused parts or gaps DEL940-989/E990V limits assumed): as above
T4 sequence (P35968 with tags, fused parts or gaps DEL940-989/E990V limits assumed): as above

inhibition at 10 µM [1] [%] | Ki [2] [nM] | IC50 [4] [µM] | Ki (CDK4/Cyclin D3 complex) [µM] | Ki [5] [nM] | melting point [°C] | Ki (CDK2/Cyclin A complex) [µM] | SMILES | IC50 [3] [nM]
62 | – | – | – | – | – | – | O=C(NCc1ccc2c(c1)OCO2)c1cccc(CSc2ncnc3[nH]ncc23)c1 [Example B-6, N-(1,3-Benzodioxyl-5-ylmethyl)-3-[(1H-pyrazolo[3,4-d]pyrimidin-4-yl)sulfanylmethyl]benzamide] | –
– | 4.79 | > 10 | > 100 | 0.95 | 67 to 69 | > 100 | COc1cc(NC(=O)c2cccc(SCc3cc(Nc4ccccc4)n[nH]3)c2)cc(OC)c1OC [Example E-2] | 55
